Assay results: article PMC11995724, “Antibiotic target discovery by integrated phenotypic and activity-based profiling of electrophilic fragments” (Cell chemical biology, 2025)
Where a name gives a salt, the structure may show the parent alone.

Assay: in vitro
Conditions: human, hek293t cells
With COCC1(NC(=O)C(C)Cl)CC=CCC1 (stereo not drawn) [6-J13, 2-chloro-N-[1-(methoxymethyl)cyclohex-3-en-1-yl]propanamide] the viability at 48 h, 25 µM was 107%. CC(Cl)C(=O)N(C)C(C)c1cccc(NC(=O)c2ccccc2)c1 (stereo not drawn) [6-J14, N-{3-[1-(2-chloro-N-methylpropanamido)ethyl]phenyl}benzamide] showed a viability at 48 h, 25 µM of 111%. In the case of CC(Cl)C(=O)N1CC(Oc2ccc(C#N)cc2)C1 (stereo not drawn) [6-J15, 4-{[1-(2-chloropropanoyl)azetidin-3-yl]oxy}benzonitrile], the viability at 48 h, 25 µM is reported as 97.1%. For CC(Cl)C(=O)NC1CCCn2nccc21 (stereo not drawn) [6-J16, 2-chloro-N-{4H,5H,6H,7H-pyrazolo[1,5-a]pyridin-4-yl}propanamide], the viability at 48 h, 25 µM was 113%. CC(Cl)C(=O)N1CCNC(=O)C1c1cccs1 (stereo not drawn) [6-J17, 4-(2-chloropropanoyl)-3-(thiophen-2-yl)piperazin-2-one] showed a viability at 48 h, 25 µM of 106%. In the case of CC(Cl)C(=O)N1CCC(c2nc3cc(F)ccc3s2)CC1 (stereo not drawn) [6-J18, 2-chloro-1-[4-(5-fluoro-1,3-benzothiazol-2-yl)piperidin-1-yl]propan-1-one], the viability at 48 h, 25 µM is reported as 78.9%. CC(Cl)C(=O)NC1CC(=O)N(Cc2ccccc2C(F)(F)F)C1 (stereo not drawn) [6-J19, 2-chloro-N-(5-oxo-1-{[2-(trifluoromethyl)phenyl]methyl}pyrrolidin-3-yl)propanamide] gave a viability at 48 h, 25 µM of 108%. Work on CC(Cl)C(=O)N(C)C1CCN(c2ccccn2)CC1 (stereo not drawn) [6-J20, 2-chloro-N-methyl-N-[1-(pyridin-2-yl)piperidin-4-yl]propanamide] yielded a viability at 48 h, 25 µM of 106%. CC(Cl)C(=O)N(C)C1CCS(=O)(=O)CC1 (stereo not drawn) [6-J21, 2-chloro-N-(1,1-dioxo-1lambda6-thian-4-yl)-N-methylpropanamide] showed a viability at 48 h, 25 µM of 99.1%. CC(Cl)C(=O)N1CCCC(CNC(=O)Nc2ccc(F)cc2)C1 (stereo not drawn) [6-J22, 3-{[1-(2-chloropropanoyl)piperidin-3-yl]methyl}-1-(4-fluorophenyl)urea] gave a viability at 48 h, 25 µM of 105%. Compound Cc1ccsc1-c1nnc(NC(=O)CCl)o1 [6-K03, 2-chloro-N-[5-(3-methylthiophen-2-yl)-1,3,4-oxadiazol-2-yl]acetamide] has a viability at 48 h, 25 µM of 72.7%. Compound CC1CCCN(Cc2ccc(CNC(=O)CCl)cc2)C1 (stereo not drawn) [6-K04, 2-chloro-N-({4-[(3-methylpiperidin-1-yl)methyl]phenyl}methyl)acetamide hydrochloride] has a viability at 48 h, 25 µM of 56.4%. In the case of CCc1ccc(CNC(=O)CCl)s1 [6-K05, 2-chloro-N-[(5-ethylthiophen-2-yl)methyl]acetamide], the viability at 48 h, 25 µM is reported as 5.18%. Compound Cc1cc(C)c(CCNC(=O)CCl)c(C)c1 [6-K06, 2-chloro-N-[2-(2,4,6-trimethylphenyl)ethyl]acetamide] has a viability at 48 h, 25 µM of 14.3%. For O=C(CCl)Nc1ccc(OCc2ccccc2)cc1 [6-K07, N-[4-(benzyloxy)phenyl]-2-chloroacetamide], the viability at 48 h, 25 µM was 0.0552%. Compound O=C(CCl)NC(c1ccc(F)cc1)C1CCCC1 (stereo not drawn) [6-K08, 2-chloro-N-[cyclopentyl(4-fluorophenyl)methyl]acetamide] has a viability at 48 h, 25 µM of 1.04%. Work on CC(Cl)C(=O)Nc1c(Cl)cc(Cl)cc1Cl (stereo not drawn) [6-K09, 2-chloro-N-(2,4,6-trichlorophenyl)propanamide] yielded a viability at 48 h, 25 µM of 115%. O=C(CCl)NCc1ccccc1C(F)(F)F [6-K10, 2-chloro-N-{[2-(trifluoromethyl)phenyl]methyl}acetamide] gave a viability at 48 h, 25 µM of 2.67%. For CCC(C)c1ccccc1NC(=O)CCl (stereo not drawn) [6-K11, N-[2-(butan-2-yl)phenyl]-2-chloroacetamide], the viability at 48 h, 25 µM was 0.743%. Work on COc1cc2c(cc1OC)C(c1ccccc1)N(C(=O)CCl)CC2 (stereo not drawn) [6-K12, 2-chloro-1-(6,7-dimethoxy-1-phenyl-1,2,3,4-tetrahydroisoquinolin-2-yl)ethan-1-one] yielded a viability at 48 h, 25 µM of 0.105%. O=C(CCl)Nc1ccc(Cl)c(S(=O)(=O)N2CCOCC2)c1 [6-K13, 2-chloro-N-[4-chloro-3-(morpholine-4-sulfonyl)phenyl]acetamide] showed a viability at 48 h, 25 µM of 0.541%. O=C(CCl)NCc1ccccc1CN1CCCC1=O [6-K14, 2-chloro-N-({2-[(2-oxopyrrolidin-1-yl)methyl]phenyl}methyl)acetamide] gave a viability at 48 h, 25 µM of 2.03%. For CC(Cl)C(=O)Nc1ccc(F)cc1 (stereo not drawn) [6-K15, 2-chloro-N-(4-fluorophenyl)propanamide], the viability at 48 h, 25 µM was 113%. In the case of CC(C#N)CSc1ccccc1NC(=O)CCl (stereo not drawn) [6-K16, 2-chloro-N-{2-[(2-cyano-2-methylethyl)sulfanyl]phenyl}acetamide], the viability at 48 h, 25 µM is reported as 1.3%. Work on O=C(CCl)Nc1nnc(-c2ccccc2Cl)s1 [6-K17, 2-chloro-N-[5-(2-chlorophenyl)-1,3,4-thiadiazol-2-yl]acetamide] yielded a viability at 48 h, 25 µM of 0.539%. For CC(C)c1ccc(CN(C(=O)CCl)C2CC2)cc1 [6-K18, 2-chloro-N-cyclopropyl-N-{[4-(propan-2-yl)phenyl]methyl}acetamide], the viability at 48 h, 25 µM was 1.65%. Cc1cc(CO[C@H]2CC[C@H](NC(=O)CCl)CC2)on1 [6-K19, 2-chloro-N-[(1r,4r)-4-[(3-methyl-1,2-oxazol-5-yl)methoxy]cyclohexyl]acetamide] showed a viability at 48 h, 25 µM of 88.1%. O=C(CCl)NCCc1nc2ccccc2s1 [6-K20, N-[2-(1,3-benzothiazol-2-yl)ethyl]-2-chloroacetamide] gave a viability at 48 h, 25 µM of 98%. CC(Cl)C(=O)NC1CC=CCC1 (stereo not drawn) [6-K21, 2-chloro-N-(cyclohex-3-en-1-yl)propanamide] gave a viability at 48 h, 25 µM of 114%. For CC(=O)c1cccc(NC(=O)C(C)Cl)c1 (stereo not drawn) [6-K22, N-(3-acetylphenyl)-2-chloropropanamide], the viability at 48 h, 25 µM was 105%. With CC(Cl)C(=O)NC1CCCN(S(=O)(=O)N2CCOCC2)C1 (stereo not drawn) [6-L03, 2-chloro-N-[1-(morpholine-4-sulfonyl)piperidin-3-yl]propanamide] the viability at 48 h, 25 µM was 111%. For O=C(CCl)N1N=C(c2cccs2)CC1c1cccc(O)c1 (stereo not drawn) [6-L04, 2-chloro-1-[5-(3-hydroxyphenyl)-3-(thiophen-2-yl)-4,5-dihydro-1H-pyrazol-1-yl]ethan-1-one], the viability at 48 h, 25 µM was 0.561%. CC(Cl)C(=O)N1CCOC(c2ccnc(N(C)C)n2)C1 (stereo not drawn) [6-L05, 2-chloro-1-{2-[2-(dimethylamino)pyrimidin-4-yl]morpholin-4-yl}propan-1-one] gave a viability at 48 h, 25 µM of 99.1%. CCc1ccccc1NC(=O)CN(C)C(=O)CCl [6-L06, 2-chloro-N-{[(2-ethylphenyl)carbamoyl]methyl}-N-methylacetamide] gave a viability at 48 h, 25 µM of 0.728%. With CC(NC(=O)CCl)c1nc(Cc2ccccc2)no1 (stereo not drawn) [6-L07, N-[1-(3-benzyl-1,2,4-oxadiazol-5-yl)ethyl]-2-chloroacetamide] the viability at 48 h, 25 µM was 1.28%. Cc1ccccc1CN1CCC(NC(=O)CCl)CC1 [6-L08, 2-chloro-N-{1-[(2-methylphenyl)methyl]piperidin-4-yl}acetamide hydrochloride] showed a viability at 48 h, 25 µM of 113%. Compound O=C(CCl)N(Cc1cnn(-c2ccccc2)c1)C1CC1 [6-L09, 2-chloro-N-cyclopropyl-N-[(1-phenyl-1H-pyrazol-4-yl)methyl]acetamide] has a viability at 48 h, 25 µM of 1.4%. Work on CC(Cl)C(=O)Nc1nc(-c2ccccc2)cs1 (stereo not drawn) [6-L10, 2-chloro-N-(4-phenyl-1,3-thiazol-2-yl)propanamide] yielded a viability at 48 h, 25 µM of 101%. In the case of O=C(CCl)N(Cc1ccc2c(c1)CCO2)C1CCCC1 [6-L11, 2-chloro-N-cyclopentyl-N-[(2,3-dihydro-1-benzofuran-5-yl)methyl]acetamide], the viability at 48 h, 25 µM is reported as 0.358%. With COc1cc(S(=O)(=O)N2CCOCC2)ccc1NC(=O)CCl [6-L12, 2-chloro-N-[2-methoxy-4-(morpholine-4-sulfonyl)phenyl]acetamide] the viability at 48 h, 25 µM was 0.942%. CC(Cl)C(=O)N1C2CCC1CC(N(C)C(=O)c1ccccc1)C2 (stereo not drawn) [6-L14, N-[8-(2-chloropropanoyl)-8-azabicyclo[3.2.1]octan-3-yl]-N-methylbenzamide] gave a viability at 48 h, 25 µM of 101%. CC(Cl)C(=O)NC1CC(C)N(c2ccccc2)C1 (stereo not drawn) [6-L15, 2-chloro-N-(5-methyl-1-phenylpyrrolidin-3-yl)propanamide] showed a viability at 48 h, 25 µM of 99.3%. Compound CC(Cl)C(=O)N(C)C1CCCc2c1cnn2C (stereo not drawn) [6-L16, 2-chloro-N-methyl-N-(1-methyl-4,5,6,7-tetrahydro-1H-indazol-4-yl)propanamide] has a viability at 48 h, 25 µM of 112%. In the case of CC(Cl)C(=O)N(C(C)CS(C)(=O)=O)C1CC1 (stereo not drawn) [6-L17, 2-chloro-N-cyclopropyl-N-(1-methanesulfonylpropan-2-yl)propanamide], the viability at 48 h, 25 µM is reported as 112%. Work on CC1CN(c2cccc(CN(C)C(=O)C(C)Cl)c2)S(=O)(=O)C1 (stereo not drawn) [6-L18, 2-chloro-N-methyl-N-{[3-(4-methyl-1,1-dioxo-1lambda6,2-thiazolidin-2-yl)phenyl]methyl}propanamide] yielded a viability at 48 h, 25 µM of 112%. Work on COCC(NC(=O)C(C)Cl)c1cccc(C#N)c1 (stereo not drawn) [6-L19, 2-chloro-N-[1-(3-cyanophenyl)-2-methoxyethyl]propanamide] yielded a viability at 48 h, 25 µM of 107%. For CC(Cl)C(=O)NC1CS(=O)(=O)Cc2ccccc21 (stereo not drawn) [6-L20, 2-chloro-N-(2,2-dioxo-3,4-dihydro-1H-2lambda6-benzothiopyran-4-yl)propanamide], the viability at 48 h, 25 µM was 93.5%. For CC(Cl)C(=O)NC(c1cccs1)c1cccs1 (stereo not drawn) [6-L21, N-[bis(thiophen-2-yl)methyl]-2-chloropropanamide], the viability at 48 h, 25 µM was 100%. CCn1cc(CN(C)C(=O)C(C)Cl)nn1 (stereo not drawn) [6-L22, 2-chloro-N-[(1-ethyl-1H-1,2,3-triazol-4-yl)methyl]-N-methylpropanamide] showed a viability at 48 h, 25 µM of 94.7%. With COc1ccc(C2CCCN2C(=O)CCl)cc1OC (stereo not drawn) [6-M03, 2-chloro-1-[2-(3,4-dimethoxyphenyl)pyrrolidin-1-yl]ethan-1-one] the viability at 48 h, 25 µM was 0.75%. Work on O=C(CCl)Nc1ccc(CN2CCCCC2)cc1 [6-M04, 2-chloro-N-{4-[(piperidin-1-yl)methyl]phenyl}acetamide hydrochloride] yielded a viability at 48 h, 25 µM of 0.0889%. In the case of CN(CC(=O)Nc1c(Cl)cccc1Cl)C(=O)CCl [6-M05, 2-chloro-N-{[(2,6-dichlorophenyl)carbamoyl]methyl}-N-methylacetamide], the viability at 48 h, 25 µM is reported as 2.21%. Work on CNC(=O)C(NC(=O)CCl)c1ccccc1 (stereo not drawn) [6-M06, 2-(2-chloroacetamido)-N-methyl-2-phenylacetamide] yielded a viability at 48 h, 25 µM of 0.807%. With CNS(=O)(=O)c1cc(NC(=O)CCl)ccc1C [6-M07, 2-chloro-N-[4-methyl-3-(methylsulfamoyl)phenyl]acetamide] the viability at 48 h, 25 µM was 0.859%.
